Experimental data published in patent publication US9688638B2, “Opioid agonists and uses thereof” (priority 2013, dated 2017).
pEC50, pIC50, pKi: −log10 of the molar value. Values joined by “and” are separate entries in the source; they are usually repeats but may differ in a detail not shown here. Equal values may be shown once. Read-outs that look alike come from different tables or passages of the source.

Legend:
[1] = target: recombinant human kappa (KOR) opioid receptor (Homo sapiens (Human), UniProt P41145); experiment: biochemical; format: binding
KOR = KOR (Homo sapiens (Human), UniProt P41145); experiment: cAMP accumulation assay, forskolin-stimulated CHO-K1 cells stably expressing KOR; format: cell-based; details: for EC50: inhibition of cAMP accumulation, forskolin 20 μM, read-out: EC50 cAMP (nM)-KOR
Procedure: Inhibition of cAMP accumulation by select compounds was measured in forskolin-stimulated CHO-K1 cells stably expressing KOR. CHO-K1 cells stably expressing KOR were harvested using Invitrogen Cell Dissociation Buffer, and then centrifuged at 1200 rpm for five minutes. The supernatant was aspirated and cells were resuspended in assay buffer to a density of 4×10^5 cells/mL. 25 μL of cells were added into a white half-area 96 well plate. Fourteen point serial dilutions of test compounds were carried out in assay buffer (PBS with 0.5 mM IBMX). Ketazocine was used as a positive control for each assay. 12.5 μL of compound was added to the cells in duplicate for each test concentration. The cells were then stimulated with 12.5 μL forskolin at a final concentration 20 μM. Cells were incubated for 45 minutes in a 37° C., 5% CO2 water jacketed incubator. CisBio HTRF cAMP assay reagent was used for cAMP quantitation. Two hours after substrate addition, signal at 665/615 nm was measured using the Perkin Elmer Victor X4 HTRF reader. Data analysis was done using GraphPad Prism, sigmoidal dose-response (variable slope) curve fitting.

[2] = system: Swiss Albino or CD-1 male mice; experiment: Acetic acid writhing (AAW) analgesic assay; format: in vivo; details: for inhibition in vivo at 3 mg/kg / inhibition in vivo at 30 mg/kg / inhibition in vivo at 10 mg/kg / inhibition in vivo at 0.3 mg/kg: Mus musculus, 20 min, read-out: AAW % Efficacy
Procedure: Approaches for evaluating analgesic activity of a compound of the present invention in vivo include a “writhing test.” Briefly, the compound to be tested is administered [by, for example, injection (e.g., subcutaneous injection)] to the mouse. Thereafter, a 0.5% acetic acid solution is administered (i.p.) to a mouse and the numbers of writhing responses are counted for twenty minutes. Antinociception is quantified as reduction in the number of writhes respective to vehicle.
An analgesic assay was used to determine whether a given compound can reduce and/or prevent visceral pain in mice. The assay utilizes Swiss Albino or CD-1 male mice (5-10 mice per group), each mouse being approximately 0.015-0.030 kg on the study day. Mice were treated according to standard protocols.
The animal was given an intraperitoneal (IP) injection of an irritant (acetic acid) that induces “writhing” which may include: contractions of the abdomen, twisting and turning of the trunk, arching of the back and the extension of the hindlimbs. Mice are given a single IP injection (0.1 mL/10 g bodyweight) of a 0.5% acetic acid solution. After the injection the animals were returned to their observation enclosure and their behavior was observed. Contractions were counted between 0 and 20 minutes after the injection. The animals were used once. In certain instances, the test articles were administered at multiple doses to determine a dose response curve.
Table 4 provides the results for certain compounds of the present invention that were administered subcutaneously. Table 5 provides the results for certain compounds of the present invention that were administered orally.

SMILES: COCCOCCOCCOCCOCCNc1ccc2c(c1)[C@]1(C)CCN(CC3CC3)[C@H](C2=O)[C@@H]1C [Compound 2, (2S,6R,11R)-3-(Cyclopropylmethyl)-6,11-dimethyl-8-(2,5,8,11,14-pentaoxahexadecan-16-ylamino)-3,4,5,6-tetrahydro-2,6-methano-3-benzazocin-1(2H)-one]
- pIC50 [1]: 5.62
- pKi [1]: 6.26
- EC50 (KOR): 139 nM

SMILES: COCCOCCOCCOCCOCCOCCOCCNc1ccc2c(c1)[C@]1(C)CCN(CC3CC3)[C@H](C2=O)[C@@H]1C [Compound 3, (2S,6R,11R)-3-(Cyclopropylmethyl)-8-(2,5,8,11,14,17,20-heptaoxadocosan-22-ylamino)-6,11-dimethyl-3,4,5,6-tetrahydro-2,6-methano-3-benzazocin-1(2H)-one]
- pKi ([1]; Cheng Prusoff correction, [3H]Diprenorphine 1 nM, CHO-K1 membranes, read-out: Kappa receptor binding Ki): 6.11
- pIC50 ([1]; [3H]Diprenorphine 1 nM, CHO-K1 membranes, read-out: Kappa receptor binding IC50): 5.48
- EC50 (KOR): 122 nM

SMILES: COCCOCCOCCOCCOCCOCCOCCOc1ccc2c(c1)[C@]1(C)CCN(CC3CC3)[C@H](C2=O)[C@@H]1C [Compound 6, (2S,6R,11R)-3-(Cyclopropylmethyl)-8-(2,5,8,11,14,17,20-heptaoxadocosan-22-yloxy)-6,11-dimethyl-3,4,5,6-tetrahydro-2,6-methano-3-benzazocin-1(2H)-one]
- pIC50 [1]: 5.22
- pKi [1]: 5.85
- pEC50 (KOR): 6.45

SMILES: COCCOCCOCCOCCOCCOc1ccccc1Nc1ccc2c(c1)[C@]1(C)CCN(CC3CC3)[C@H](C2=O)[C@@H]1C [Compound 7, (2S,6R,11R)-8-((2-(2,5,8,11,14-pentaoxahexadecan-16-yloxy)phenyl)amino)-3-(cyclopropylmethyl)-6,11-dimethyl-3,4,5,6-tetrahydro-2,6-methanobenzo[d]azocin-1(2H)-one]
- inhibition in vivo at 3 mg/kg ([2]; sc, subcutaneous, 3 mg/kg): 38.8%
- inhibition in vivo at 30 mg/kg ([2]; sc, subcutaneous): 84.8%
- AAW percent efficacy, outlier data removed ([2]; subcutaneous, 3 mg/kg): 31.95

SMILES: COCCOCCOCCOCCOCCOc1cccc(Nc2ccc3c(c2)[C@]2(C)CCN(CC4CC4)[C@H](C3=O)[C@@H]2C)c1 [Compound 8, (2S,6R,11R)-8-((3-(2,5,8,11,14-pentaoxahexadecan-16-yloxy)phenyl)amino)-3-(cyclopropylmethyl)-6,11-dimethyl-3,4,5,6-tetrahydro-2,6-methanobenzo[d]azocin-1(2H)-one]
- inhibition in vivo at 3 mg/kg ([2]; sc, subcutaneous, 3 mg/kg): 38%
- inhibition in vivo at 30 mg/kg ([2]; sc, subcutaneous): 100%
- AAW percent efficacy, outlier data removed ([2]; subcutaneous, 3 mg/kg): 31.07

SMILES: COCCOCCOCCOCCOCCOc1ccc(Nc2ccc3c(c2)[C@]2(C)CCN(CC4CC4)[C@H](C3=O)[C@@H]2C)cc1 [Compound 9, (2S,6R,11R)-8-((4-(2,5,8,11,14-pentaoxahexadecan-16-yloxy)phenyl)amino)-3-(cyclopropylmethyl)-6,11-dimethyl-3,4,5,6-tetrahydro-2,6-methanobenzo[d]azocin-1(2H)-one]
- inhibition in vivo at 10 mg/kg ([2]; po, oral, 10 mg/kg): 38.5%
- inhibition in vivo at 0.3 mg/kg ([2]; sc, subcutaneous, 0.3 mg/kg): 13.3%
- inhibition in vivo at 3 mg/kg ([2]; sc, subcutaneous, 3 mg/kg): 67.8%
- inhibition in vivo at 10 mg/kg ([2]; sc, subcutaneous, 10 mg/kg): 95.4%
- inhibition in vivo at 30 mg/kg ([2]; sc, subcutaneous): 99.2%
- AAW percent efficacy, outlier data removed ([2]; subcutaneous, 0.3 mg/kg): 13.18
- AAW percent efficacy, outlier data removed ([2]; subcutaneous, 3 mg/kg): 64.20 and 57.09
- AAW percent efficacy, outlier data removed ([2]; subcutaneous, 10 mg/kg): 94.93

SMILES: COCCOCCOCCOCCOCCNc1ccc(Nc2ccc3c(c2)[C@]2(C)CCN(CC4CC4)[C@H](C3=O)[C@@H]2C)cc1 [Compound 10, (2S,6R,11R)-8-((4-(2,5,8,11,14-pentaoxahexadecan-16-ylamino)phenyl)amino)-3-(cyclopropylmethyl)-6,11-dimethyl-3,4,5,6-tetrahydro-2,6-methanobenzo[d]azocin-1(2H)-one]
- inhibition in vivo at 30 mg/kg ([2]; sc, subcutaneous): 100%
- AAW % Efficacy ([2]; subcutaneous, 3 mg/kg): 34.0%
- AAW percent efficacy, outlier data removed ([2]; subcutaneous, 3 mg/kg): 26.63

SMILES: COCCOCCOCCOCCOCCNc1cccc(Nc2ccc3c(c2)[C@]2(C)CCN(CC4CC4)[C@H](C3=O)[C@@H]2C)c1 [Compound 11, (2S,6R,11R)-8-((3-(2,5,8,11,14-pentaoxahexadecan-16-ylamino)phenyl)amino)-3-(cyclopropylmethyl)-6,11-dimethyl-3,4,5,6-tetrahydro-2,6-methanobenzo[d]azocin-1(2H)-one]
- inhibition in vivo at 10 mg/kg ([2]; po, oral, 10 mg/kg): 31.2%
- inhibition in vivo at 0.3 mg/kg ([2]; sc, subcutaneous, 0.3 mg/kg): 21.1%
- inhibition in vivo at 3 mg/kg ([2]; sc, subcutaneous, 3 mg/kg): 62.2%
- inhibition in vivo at 10 mg/kg ([2]; sc, subcutaneous, 10 mg/kg): 99.1%
- inhibition in vivo at 30 mg/kg ([2]; sc, subcutaneous): 100%
- AAW percent efficacy, outlier data removed ([2]; subcutaneous, 0.3 mg/kg): 12.30
- AAW percent efficacy, outlier data removed ([2]; subcutaneous, 3 mg/kg): 56.21 and 60.30
- AAW percent efficacy, outlier data removed ([2]; subcutaneous, 10 mg/kg): 99.00

SMILES: COCCOCCOCCOCCOCCNc1nc2cc3c(cc2s1)C(=O)[C@@H]1[C@H](C)[C@@]3(C)CCN1CC1CC1 [Compound 13, (6S,10R,12R)-2-(2,5,8,11,14-pentaoxahexadecan-16-ylamino)-7-(cyclopropylmethyl)-10,12-dimethyl-7,8,9,10-tetrahydro-6,10-methanothiazolo[4′,5′:4,5]benzo[1,2-d]azocin-5(6H)-one]
- inhibition in vivo at 10 mg/kg ([2]; sc, subcutaneous, 10 mg/kg): 40.2%

SMILES: COCCOCCN1CC[C@@]2(C)c3cc(O)ccc3C(=O)[C@@H]1[C@@H]2C [Compound 14, (2S,6R,11R)-8-hydroxy-3-(2-(2-methoxyethoxy)ethyl)-6,11-dimethyl-3,4,5,6-tetrahydro-2,6-methanobenzo[d]azocin-1(2H)-one]
- inhibition in vivo at 10 mg/kg ([2]; sc, subcutaneous, 10 mg/kg): 13.2%

SMILES: COCCOCC(=O)Nc1ccc2c(c1)[C@]1(C)CCN(CC3CC3)[C@H](C2=O)[C@@H]1C [Compound 15, N-((2S,6R,11R)-3-(cyclopropylmethyl)-6,11-dimethyl-1-oxo-1,2,3,4,5,6-hexahydro-2,6-methanobenzo[d]azocin-8-yl)-2-(2-methoxyethoxy)acetamide]
- inhibition in vivo at 10 mg/kg ([2]; sc, subcutaneous, 10 mg/kg): 100%

SMILES: COCCNC(=O)c1ccc2c(c1)[C@]1(C)CCN(CC3CC3)[C@H](C2=O)[C@@H]1C [Compound 16, (2S,6R,11R)-3-(cyclopropylmethyl)-N-(2-methoxyethyl)-6,11-dimethyl-1-oxo-1,2,3,4,5,6-hexahydro-2,6-methanobenzo[d]azocine-8-carboxamide]
- inhibition in vivo at 10 mg/kg ([2]; sc, subcutaneous, 10 mg/kg): 26.4%

SMILES: COCCOCC(=O)NCc1ccc2c(c1)[C@]1(C)CCN(CC3CC3)C(C2=O)[C@@H]1C [Compound 17, N,N-(((2S,6R,11R)-3-(cyclopropylmethyl)-6,11-dimethyl-1-oxo-1,2,3,4,5,6-hexahydro-2,6-methanobenzo[d]azocin-8-yl)methyl)-2-(2-methoxyethoxy)acetamide]
- inhibition in vivo at 10 mg/kg ([2]; sc, subcutaneous, 10 mg/kg): 23.3%

SMILES: COCCOCCNCc1ccc2c(c1)[C@]1(C)CCN(CC3CC3)[C@H](C2=O)[C@@H]1C [Compound 18, (2S,6R,11R)-3-(cyclopropylmethyl)-8-(((2-(2-methoxyethoxy)ethyl)amino)methyl)-6,11-dimethyl-3,4,5,6-tetrahydro-2,6-methanobenzo[d]azocin-1(2H)-one]
- inhibition in vivo at 10 mg/kg ([2]; sc, subcutaneous, 10 mg/kg): 31.9%

SMILES: COCCOCCOCCOCCOCCOc1c(O)ccc2c1[C@]1(C)CCN(CC3CC3)[C@H](C2=O)[C@@H]1C [Compound 19, (2S,6R,11R)-7-(2,5,8,11,14-pentaoxahexadecan-16-yloxy)-3-(cyclopropylmethyl)-8-hydroxy-6,11-dimethyl-3,4,5,6-tetrahydro-2,6-methanobenzo[d]azocin-1(2H)-one]
- inhibition in vivo at 10 mg/kg ([2]; sc, subcutaneous, 10 mg/kg): 31.6%

SMILES: COCCOCCOCCOCCOCCO[C@@H]1c2ccc(O)cc2[C@]2(C)CCN(CC3CC3)[C@H]1[C@@H]2C [Compound 25, (1R,2S,6R,11R)-1-(2,5,8,11,14-pentaoxahexadecan-16-yloxy)-3-(cyclopropylmethyl)-6,11-dimethyl-1,2,3,4,5,6-hexahydro-2,6-methanobenzo[d]azocin-8-ol]
- pKi [1]: 6.02
- EC50 (KOR): 195 nM

SMILES: C[C@H]1[C@H]2C(=O)c3cc4sc(N)nc4cc3[C@]1(C)CCN2CC1CC1 [Step 1 of 13, (6S,10R,12R)-2-amino-7-(cyclopropylmethyl)-10,12-dimethyl-7,8,9,10-tetrahydro-6,10-methanothiazolo[4′,5′:4,5]benzo[1,2-d]azocin-5(6H)-one]
- inhibition in vivo at 10 mg/kg ([2]; sc, subcutaneous, 10 mg/kg): 100%
